Laboratory results taken from ChEMBL document CHEMBL1135518 (J Med Chem, 2002).

Tests used:
D(4) dopamine receptor = biological target: T1, D(4) dopamine receptor (Homo sapiens, UniProt P21917); experiment: The binding affinity at the Dopamine receptor D4 determined using [3H]YM-09151-2
T1 sequence (P21917 whole entry): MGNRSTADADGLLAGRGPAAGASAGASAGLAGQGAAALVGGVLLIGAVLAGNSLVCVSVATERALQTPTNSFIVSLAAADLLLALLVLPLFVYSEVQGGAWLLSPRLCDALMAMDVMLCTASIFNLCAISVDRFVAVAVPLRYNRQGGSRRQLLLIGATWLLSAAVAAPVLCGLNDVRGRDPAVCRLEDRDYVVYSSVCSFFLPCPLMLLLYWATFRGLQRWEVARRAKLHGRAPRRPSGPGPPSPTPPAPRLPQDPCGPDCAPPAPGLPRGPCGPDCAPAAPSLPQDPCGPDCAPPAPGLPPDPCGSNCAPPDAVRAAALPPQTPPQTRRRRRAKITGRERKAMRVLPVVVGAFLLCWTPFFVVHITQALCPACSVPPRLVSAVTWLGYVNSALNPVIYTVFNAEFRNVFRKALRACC

Rattus norvegicus [1] = experiment: The increase in the extracellular levels of 5-HT in the rat ventral hippocampus at a dose of 2.5 mg/kg sc measured by in vivo microdialysis; assay type: functional; conditions: route subcutaneous
[2] = biological target: T2, 5-hydroxytryptamine receptor 2C (Rattus norvegicus, UniProt P08909); experiment: The binding affinity at 5-hydroxytryptamine 2C receptor was determined using [3H]mesulergine
T2 sequence (P08909 whole entry): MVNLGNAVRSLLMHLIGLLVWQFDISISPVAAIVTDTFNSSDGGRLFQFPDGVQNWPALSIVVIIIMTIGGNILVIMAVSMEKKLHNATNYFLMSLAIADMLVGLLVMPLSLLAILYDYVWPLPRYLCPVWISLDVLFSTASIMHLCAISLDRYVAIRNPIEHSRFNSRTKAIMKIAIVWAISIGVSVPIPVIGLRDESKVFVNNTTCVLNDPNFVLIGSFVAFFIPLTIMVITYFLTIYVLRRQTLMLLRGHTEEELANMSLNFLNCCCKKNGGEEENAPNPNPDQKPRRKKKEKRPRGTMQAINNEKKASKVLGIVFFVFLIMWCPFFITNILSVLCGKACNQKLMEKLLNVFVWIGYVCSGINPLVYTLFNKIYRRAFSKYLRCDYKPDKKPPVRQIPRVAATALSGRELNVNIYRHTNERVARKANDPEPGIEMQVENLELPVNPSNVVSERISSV

[3] = biological target: T3, 5-hydroxytryptamine receptor 1A (Homo sapiens, UniProt P08908); experiment: The binding affinity at the 5-hydroxytryptamine 1A receptor determined using [3H]5-CT
T3 sequence (P08908 whole entry): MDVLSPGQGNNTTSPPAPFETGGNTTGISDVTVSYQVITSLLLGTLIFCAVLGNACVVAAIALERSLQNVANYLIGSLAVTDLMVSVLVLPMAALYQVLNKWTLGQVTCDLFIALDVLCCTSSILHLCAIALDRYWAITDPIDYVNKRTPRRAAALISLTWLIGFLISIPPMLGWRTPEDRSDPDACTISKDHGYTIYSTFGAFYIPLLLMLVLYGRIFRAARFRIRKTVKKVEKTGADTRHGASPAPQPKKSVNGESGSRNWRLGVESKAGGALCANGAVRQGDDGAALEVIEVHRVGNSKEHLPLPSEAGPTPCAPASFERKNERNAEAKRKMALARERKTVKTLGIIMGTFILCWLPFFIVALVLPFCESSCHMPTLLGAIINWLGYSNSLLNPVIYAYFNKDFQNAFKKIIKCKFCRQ

D(2) dopamine receptor = D(2) dopamine receptor (Rattus norvegicus, UniProt P61169); experiment: The binding affinity at the Dopamine receptor D2 determined using [3H]spiperone
Chain of D(2) dopamine receptor (P61169 whole entry): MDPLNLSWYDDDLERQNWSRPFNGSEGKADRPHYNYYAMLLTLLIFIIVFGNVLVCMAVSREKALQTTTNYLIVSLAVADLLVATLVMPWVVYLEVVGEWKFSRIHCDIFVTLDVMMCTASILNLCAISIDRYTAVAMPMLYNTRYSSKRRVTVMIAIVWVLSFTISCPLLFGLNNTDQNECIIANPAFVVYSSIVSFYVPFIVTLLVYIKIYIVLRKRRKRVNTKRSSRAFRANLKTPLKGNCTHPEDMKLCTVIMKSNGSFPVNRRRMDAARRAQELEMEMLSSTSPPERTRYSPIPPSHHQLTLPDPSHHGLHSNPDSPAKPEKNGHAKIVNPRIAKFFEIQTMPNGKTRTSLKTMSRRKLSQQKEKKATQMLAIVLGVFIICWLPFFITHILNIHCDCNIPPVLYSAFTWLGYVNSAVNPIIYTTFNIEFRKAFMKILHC

[4] = The binding affinity at the Histamine H1 receptor determined using [3H]pyrilamine; parameters: species or system Cavia porcellus
Rattus norvegicus [5] = experiment: The increase in the extracellular levels of 5-HIAA in the rat ventral hippocampus at a dose of 2.5 mg/kg sc measured by in vivo microdialysis; assay type: functional; conditions: route subcutaneous
Rattus norvegicus [6] = experiment: The increase in the extracellular levels of DOPAC in the rat ventral hippocampus at a dose of 2.5 mg/kg sc measured by in vivo microdialysis; assay type: functional; conditions: route subcutaneous
Rattus norvegicus [7] = experiment: The increase in the extracellular levels of NA in the rat ventral hippocampus at a dose of 5.0 mg/kg sc measured by in vivo microdialysis; assay type: functional; conditions: route subcutaneous

Compound	Ki (D(4) dopamine receptor)	Increase (Rattus norvegicus [1])	Ki [2]	Ki [3]	Ki (D(2) dopamine receptor)	Ki [4]	Increase (Rattus norvegicus [5])	Increase (Rattus norvegicus [6])	Increase (Rattus norvegicus [7])
COc1cccc2c1N1CCN(C)C[C@@H]1c1ccccc1C2	160 nM	200%	0.16 nM	800 nM	460 nM	13 nM	120%	130%	
COc1cccc2c1N1CCN(C)C[C@H]1c1ccccc1C2	47 nM	200%	0.39 nM	255 nM	20 nM	14 nM	120%	160%	200%
COc1cccc2c1N1CCN(C)CC1c1ccccc1C2 (racemic)	92 nM		0.21 nM	345 nM	28 nM				200%
